{"source": "patent US20260053932A1", "about": "“COMPOUNDS AND METHODS FOR THE TARGETED DEGRADATION OF ANDROGEN RECEPTOR AND ASSOCIATED METHODS OF USE” (Arvinas Operations, Inc., priority 2020, published 2026)", "test_system": "androgen receptor (AR) in LNCaP and/or VCaP cells", "test": "Androgen Receptor ELISA assay (AR degradation)", "type": "cell-based", "method": "Androgen Receptor ELISA Assay. […] The protocols used with VCaP cells are described below.\nThe cells were grown for a minimum of 3 days.\n(2)(i) A 10× stock plate in media was made; (ii) 2.5 μL of the 1000× stock was transferred to a new 10× stock plate (use 12 channel pipet, start at A (DMSO control) work thru H. When 247.5 µL of media was added to this plate, it served as a 10× stock; (iii) made media+1 nM R1881 for making 10× stock plate; (iv) added 247.5 μL of media with 1 nM R1881 to each well of the 10× stock plate, mix.\nThen 22 μL of 10× stock was added to cells and incubated for 5 hours. […] Media was aspirated, and 100 μL 1× cell lysis buffer/well was added. The cells were placed on a shaker located in a cold room for 10 minutes and shaken at speed 7. The lysate mixture was mix and 20 μL transferred to 100 μl of Diluent in ELISA plate (0.15 μg/ml-[…]). The lysate-diluent mixture was store at 4° C. overnight on a shaker located in a cold room at speed 5 (gentle swirl).\nThe lysate-diluent mixture was shaken for 30 minutes at 37° C. The mouse AR antibody, anti-mouse antibody, TMB, and STOP solution were allowed to come to room temperature. The 1×ELISA buffer included in kit was made and loaded in reservoir. Media from the plate was discarded, the ELISA plate was tapped hard on paper towel, and washed 4×200 μl ELISA wash buffer using a plate washer for the first three washes and an eight channel aspirator for the fourth wash to more thoroughly aspirate the solution.\nNext, 100 μL/well of mouse AR detection Ab was added; the plate was covered and shaken at 37° C. for 1 hour; media was discarded from the plates, the plates tapped on a paper towel and washed four times with 200 μL ELISA wash buffer with a plate washer for the first three washes and an eight channel aspirator for the fourth wash; 100 μL/well of anti-mouse—HRP conjugated Ab (comes with the kit) was added; the plates was cover and shaken at 37° C. for 30 minutes; the TMB reagent was allowed to come to room temperature; the media from the plate was discarded, the plates tapped on paper towel, and washed four times with 200 μL ELISA wash buffer with a plate washer for the first three washes and an eight channel aspirator for the fourth wash; plates were tapped on paper towel; 100 μL TMB was added to each well and the plate shaken for 2 minutes—while watching color. STOP solution (100 μL) was added when light blue color developed.\nData was analyzed and plotted using GraphPad Prism software. Exemplary compounds of Tables 1A, 1B, and 1C were assayed and the data shown below in Tables 2A, 2B, and 2C. DC50 (nM) categories (degradation of AR ELISA in LNCaP and/or VCaP cells) of Tables 2A, 2B, and 2C are as follows: A<1 nM; 1≤B<10 nM; 10≤C<100 nM; D≥100 nM. Dmax (%) categories (degradation of AR ELISA in LNCaP and/or VCaP cells) of Table 2 are as follows: A≥70; 50≤B<70; C<50", "key": {"[1]": {"conditions": "LNCaP and/or VCaP cells, 5 hours incubation, media with R1881, read-out: DC50 Code* (degradation of AR ELISA)"}, "[2]": {"conditions": "degradation of AR ELISA in LNCaP and/or VCaP cells, Table 2C, read-out: DC50 Code*"}}, "note": "Like-named read-outs stand apart in the source and are kept apart here."}
{"smiles": "COc1cc(O[C@H]2C[C@H](N(CC3CCN(c4ncc(C(=O)NC5CC6(C5)CN(Cc5cc(C)c(C#N)c(C)c5)C6)cn4)CC3)C(C)C)C2)cc2c1C(=O)N(C1CCC(=O)NC1=O)C2=O", "note": "(mixture of isomers) [Compound 12, rac-N-(2-(4-cyano-3,5-dimethylbenzyl)-2-azaspiro[3.3]heptan-6-yl)-2-(4-((((1r,3r)-3-((2-(2,6-dioxopiperidin-3-yl)-7-methoxy-1,3-dioxoisoindolin-5-yl)oxy)cyclobutyl) (isopropyl)amino)methyl)piperidin-1-yl)pyrimidine-5-carboxamide]", "values": [{"measurement": "DC50", "setting": "[1]", "result": "> 100", "unit": "nM"}]}
{"smiles": "N#Cc1ccc(O[C@H]2CC[C@H](NC(=O)c3ccc(N4CCC(CN5CCN(c6ccc7c(c6)C(=O)N(C6(F)CCC(=O)NC6=O)C7=O)CC5)CC4)nn3)CC2)cc1Cl", "note": "(mixture of isomers) [Compound 18, rac-N-((1r,4r)-4-(3-chloro-4-cyanophenoxy)cyclohexyl)-6-(4-((4-(2-(3-fluoro-2,6-dioxopiperidin-3-yl)-1,3-dioxoisoindolin-5-yl)piperazin-1-yl)methyl)piperidin-1-yl)pyridazine-3-carboxamide]", "values": [{"measurement": "DC50", "setting": "[1]", "result": "< 1", "unit": "nM"}]}
{"smiles": "N#Cc1ccc(O[C@H]2CC[C@H](NC(=O)c3ccc(N4CCC(CN[C@H]5C[C@H](Oc6ccc7c(c6)C(=O)N(C6CCC(=O)NC6=O)C7=O)C5)CC4)nn3)CC2)cc1Cl", "note": "(mixture of isomers) [Compound 51, rac-N-((1r,4r)-4-(3-chloro-4-cyanophenoxy)cyclohexyl)-6-(4-((((1r,3r)-3-((2-(2,6-dioxopiperidin-3-yl)-1,3-dioxoisoindolin-5-yl)oxy)cyclobutyl)amino)methyl)piperidin-1-yl)pyridazine-3-carboxamide]", "values": [{"measurement": "DC50", "setting": "[1]", "result": "< 1", "unit": "nM"}]}
{"smiles": "Cc1cc(O[C@H]2C(C)(C)[C@H](NC(=O)c3cnc(N4CCC(CN(C(C)C)[C@H]5C[C@H](Oc6ccc7c(c6)CN(C6CCC(=O)NC6=O)C7=O)C5)CC4)cn3)C2(C)C)cc(C)c1C#N", "note": "(mixture of isomers) [compound 126, rac-N-((1r,3r)-3-(4-cyano-3,5-dimethylphenoxy)-2,2,4,4-tetramethylcyclobutyl)-5-(4-((((1r,3r)-3-((2-(2,6-dioxopiperidin-3-yl)-1-oxoisoindolin-5-yl)oxy)cyclobutyl) (isopropyl)amino)methyl)piperidin-1-yl)pyrazine-2-carboxamide]", "values": [{"measurement": "DC50", "setting": "[2]", "result": "> 100", "unit": "nM"}]}
{"smiles": "CC1(C)[C@H](NC(=O)c2ccc(N3CCC(CN4CCN(c5ccc6c(c5)C(=O)N(C5(F)CCC(=O)NC5=O)C6=O)CC4)CC3)cc2)C(C)(C)[C@H]1Oc1ccc(C#N)c(Cl)c1", "note": "(mixture of isomers) [compound 129, N-((1r,3r)-3-(3-chloro-4-cyanophenoxy)-2,2,4,4-tetramethylcyclobutyl)-4-(4-((4-(2-(3-fluoro-2,6-dioxopiperidin-3-yl)-1,3-dioxoisoindolin-5-yl)piperazin-1-yl)methyl)piperidin-1-yl)benzamide]", "values": [{"measurement": "DC50", "setting": "[2]", "result": "1 to 10", "unit": "nM"}]}
{"smiles": "Cc1cc(O[C@H]2C(C)(C)[C@H](NC(=O)c3cnc(N4CCC(CN(C(C)C)[C@H]5C[C@H](Oc6ccc7c(c6)C(=O)N(C6CCC(=O)NC6=O)C7=O)C5)CC4)nc3C)C2(C)C)cc(C)c1C#N", "note": "(mixture of isomers) [compound 146, rac-N-((1r,3r)-3-(4-cyano-3,5-dimethylphenoxy)-2,2,4,4-tetramethylcyclobutyl)-2-(4-((((1r,3r)-3-((2-(2,6-dioxopiperidin-3-yl)-1,3-dioxoisoindolin-5-yl)oxy)cyclobutyl) (isopropyl)amino)methyl)piperidin-1-yl)-4-methylpyrimidine-5-carboxamide]", "values": [{"measurement": "DC50", "setting": "[2]", "result": "< 1", "unit": "nM"}]}
{"smiles": "[2H]C([2H])([2H])Oc1cc(O[C@H]2C(C)(C)[C@H](NC(=O)c3ccc(N4CCC(CN(C(C)C)[C@H]5C[C@H](Oc6cc(OC([2H])([2H])[2H])c7c(c6)C(=O)N(C6CCC(=O)NC6=O)C7=O)C5)CC4)cc3)C2(C)C)ccc1C#N", "note": "(mixture of isomers) [compound 149, rac-N-((1r,3r)-3-(4-cyano-3-(methoxy-d3)phenoxy)-2,2,4,4-tetramethylcyclobutyl)-4-(4-((((1r,3r)-3-((2-(2,6-dioxopiperidin-3-yl)-7-(methoxy-d3)-1,3-dioxoisoindolin-5-yl)oxy)cyclobutyl) (isopropyl)amino)methyl)piperidin-1-yl)benzamide]", "values": [{"measurement": "DC50", "setting": "[2]", "result": "< 1", "unit": "nM"}]}
{"smiles": "Cc1cc(O[C@H]2C(C)(C)[C@H](NC(=O)c3ccc(N4CCC(OCCN(C)[C@H]5C[C@H](Oc6ccc7c(c6)C(=O)N(C6CCC(=O)NC6=O)C7=O)C5)CC4)cc3)C2(C)C)cc(C)c1C#N", "note": "(mixture of isomers) [compound 150, rac-N-((1r,3r)-3-(4-cyano-3,5-dimethylphenoxy)-2,2,4,4-tetramethylcyclobutyl)-4-(4-(2-(((1r,3r)-3-((2-(2,6-dioxopiperidin-3-yl)-1,3-dioxoisoindolin-5-yl)oxy)cyclobutyl) (methyl)amino)ethoxy)piperidin-1-yl)benzamide]", "values": [{"measurement": "DC50", "setting": "[2]", "result": "< 1", "unit": "nM"}]}
{"smiles": "[2H]C([2H])([2H])Oc1cc(O[C@H]2C[C@H](N(CC3CCN(c4ccc(C(=O)N[C@H]5C(C)(C)[C@H](Oc6cc(C)c(C#N)c(C)c6)C5(C)C)cc4)CC3)C(C)C)C2)cc2c1C(=O)N(C1CCC(=O)NC1=O)C2=O", "note": "(mixture of isomers) [compound 153, rac-N-((1r,3r)-3-(4-cyano-3,5-dimethylphenoxy)-2,2,4,4-tetramethylcyclobutyl)-4-(4-((((1r,3r)-3-((2-(2,6-dioxopiperidin-3-yl)-7-(methoxy-d3)-1,3-dioxoisoindolin-5-yl)oxy)cyclobutyl) (isopropyl)amino)methyl)piperidin-1-yl)benzamide]", "values": [{"measurement": "DC50", "setting": "[2]", "result": "< 1", "unit": "nM"}]}
{"smiles": "Cc1cc(O[C@H]2C(C)(C)[C@H](NC(=O)c3ccc(N4CCC(N(C)[C@H]5C[C@H](Oc6ccc7c(c6)C(=O)N(C6CCC(=O)NC6=O)C7=O)C5)CC4)cc3)C2(C)C)cc(C)c1C#N", "note": "(mixture of isomers) [compound 157, rac-N-((1r,3r)-3-(4-cyano-3,5-dimethylphenoxy)-2,2,4,4-tetramethylcyclobutyl)-4-(4-(((1r,3r)-3-((2-(2,6-dioxopiperidin-3-yl)-1,3-dioxoisoindolin-5-yl)oxy)cyclobutyl) (methyl)amino)piperidin-1-yl)benzamide]", "values": [{"measurement": "DC50", "setting": "[2]", "result": "< 1", "unit": "nM"}]}
{"smiles": "[2H]C([2H])([2H])Oc1cc(O[C@H]2C[C@H](N(CC3CCN(c4ccc(C(=O)N[C@H]5C(C)(C)[C@H](Oc6ccc(C#N)c(OC)c6)C5(C)C)cc4)CC3)C(C)C)C2)cc2c1C(=O)N(C1CCC(=O)NC1=O)C2=O", "note": "(mixture of isomers) [compound 159, rac-N-((1r,3r)-3-(4-cyano-3-methoxyphenoxy)-2,2,4,4-tetramethylcyclobutyl)-4-(4-((((1r,3r)-3-((2-(2,6-dioxopiperidin-3-yl)-7-(methoxy-d3)-1,3-dioxoisoindolin-5-yl)oxy)cyclobutyl) (isopropyl)amino)methyl)piperidin-1-yl)benzamide]", "values": [{"measurement": "DC50", "setting": "[2]", "result": "< 1", "unit": "nM"}]}
{"smiles": "CCN(C1CCN(c2ccc(C(=O)N[C@H]3C(C)(C)[C@H](Oc4cc(C)c(C#N)c(C)c4)C3(C)C)cc2)CC1)[C@H]1C[C@H](Oc2cc(OC)c3c(c2)C(=O)N(C2CCC(=O)NC2=O)C3=O)C1", "note": "(mixture of isomers) [compound 165, rac-N-((1r,3r)-3-(4-cyano-3,5-dimethylphenoxy)-2,2,4,4-tetramethylcyclobutyl)-4-(4-(((1r,3r)-3-((2-(2,6-dioxopiperidin-3-yl)-7-methoxy-1,3-dioxoisoindolin-5-yl)oxy)cyclobutyl) (ethyl)amino)piperidin-1-yl)benzamide]", "values": [{"measurement": "DC50", "setting": "[2]", "result": "< 1", "unit": "nM"}]}
{"smiles": "CCN(CC1CCN(c2ccc(C(=O)N[C@H]3C(C)(C)[C@H](Oc4cc(C)c(C#N)c(C)c4)C3(C)C)cc2)CC1)[C@H]1C[C@H](Oc2cc(OC)c3c(c2)C(=O)N(C2CCC(=O)NC2=O)C3=O)C1", "note": "(mixture of isomers) [compound 169, rac-N-((1r,3r)-3-(4-cyano-3,5-dimethylphenoxy)-2,2,4,4-tetramethylcyclobutyl)-4-(4-((((1r,3r)-3-((2-(2,6-dioxopiperidin-3-yl)-7-methoxy-1,3-dioxoisoindolin-5-yl)oxy)cyclobutyl) (ethyl)amino)methyl)piperidin-1-yl) benzamide]", "values": [{"measurement": "DC50", "setting": "[2]", "result": "< 1", "unit": "nM"}]}
